Laboratory results from PubChem BioAssay (NCI).
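Assay format: 96-well plates, 48-hour exposure. TGI marks complete inhibition of growth.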

What was measured:
Assay in all cases: DTP human tumour cell line panel, 48 h
[1] = test system: DMS 114 small cell lung
[2] = test system: U251 CNS
[3] = test system: HOP-62 NSCLC
[4] = test system: A498 renal
[5] = test system: ACHN renal
[6] = test system: HCT-116 colon
[7] = test system: KM20L2 colon
[8] = test system: M14 melanoma
[9] = test system: SF-539 CNS
[10] = test system: SW-620 colon
[11] = test system: NCI-H460 lung
[12] = test system: SK-MEL-28 melanoma
[13] = test system: SNB-19 CNS
[14] = test system: EKVX NSCLC
[15] = test system: COLO 205 colon
[16] = test system: 786-0 renal
[17] = test system: OVCAR-3 ovarian
[18] = test system: OVCAR-5 ovarian
[19] = test system: HCT-15 colon
[20] = test system: UACC-257 melanoma
[21] = test system: SK-OV-3 ovarian
[22] = test system: SK-MEL-2 melanoma
[23] = test system: NCI-H522 lung
[24] = test system: IGROV1 ovarian
[25] = test system: SF-268 CNS
[26] = test system: SF-295 CNS
[27] = test system: CCRF-CEM leukemia
[28] = test system: RXF-631 renal
[29] = test system: UO-31 renal
[30] = test system: NCI-H226 lung
[31] = test system: KM12 colon
[32] = test system: LXFL 529 NSCLC
[33] = test system: MOLT-4 leukemia
[34] = test system: DLD-1 colon
[35] = test system: HT29 colon
[36] = test system: MALME-3M melanoma
[37] = test system: HL-60(TB) leukemia
[38] = test system: HOP-18 NSCLC
[39] = test system: UACC-62 melanoma
[40] = test system: TK-10 renal
[41] = test system: SR leukemia
[42] = test system: K-562 leukemia
[43] = test system: HOP-92 NSCLC
[44] = test system: RPMI-8226 leukemia
[45] = test system: M19-MEL melanoma
[46] = test system: RXF 393 renal
[47] = test system: SN12C renal
[48] = test system: OVCAR-8 ovarian
[49] = test system: SNB-75 CNS
[50] = test system: NCI-H23 lung
[51] = test system: LOX IMVI melanoma
[52] = test system: SK-MEL-5 melanoma
[53] = test system: XF 498 CNS
[54] = test system: A549 NSCLC
[55] = test system: MCF7 breast
[56] = test system: DU-145 prostate
[57] = test system: DMS 273 small cell lung
[58] = test system: HS 578T breast
[59] = test system: T-47D breast
[60] = test system: MDA-MB-231 breast
[61] = test system: MDA-N
[62] = test system: HCC-2998 colon
[63] = test system: BT-549 breast
[64] = test system: SNB-78 CNS
[65] = test system: NCI/ADR-RES ovarian
[66] = test system: OVCAR-4 ovarian
[67] = test system: CAKI-1 renal
[68] = test system: MDA-MB-435
[69] = test system: PC-3 prostate

SMILES: O=C1C(c2ccccc2)=[N+]([O-])c2ccc(Cl)cc21
- TGI [1]: 25.6 µM
- TGI [2]: 65.1 µM
- TGI [3]: > 100 µM
- TGI [4]: > 100 µM
- TGI [5]: 56.7 µM
- TGI [6]: 34.7 µM
- TGI [7]: > 100 µM
- TGI [8]: > 100 µM
- TGI [9]: 38.5 µM
- TGI [10]: 93.3 µM
- TGI [11]: > 100 µM
- TGI [12]: 48.8 µM
- TGI [13]: > 100 µM
- TGI [14]: 47.3 µM
- TGI [15]: 28.9 µM
- TGI [16]: > 100 µM
- TGI [17]: 59.9 µM
- TGI [18]: 61.5 µM
- TGI [19]: 64.2 µM
- TGI [20]: 46.8 µM
- TGI [21]: > 100 µM
- TGI [22]: > 100 µM
- TGI [23]: 31 µM
- TGI [24]: 57 µM
- TGI [25]: 62.4 µM
- TGI [26]: > 100 µM
- TGI [27]: > 100 µM
- TGI [28]: 86.2 µM
- TGI [29]: > 100 µM
- TGI [30]: 49.9 µM
- TGI [31]: > 100 µM
- TGI [32]: 34.9 µM
- TGI [33]: 81.6 µM
- TGI [34]: 51.3 µM
- TGI [35]: 56.1 µM
- TGI [36]: 61.8 µM
- TGI [37]: 38.5 µM
- TGI [38]: > 100 µM
- TGI [39]: 35 µM
- TGI [40]: 77.9 µM
- TGI [41]: > 100 µM
- TGI [42]: > 100 µM
- TGI [43]: 0.096 µM
- TGI [44]: > 100 µM
- TGI [45]: 42.1 µM
- TGI [46]: 29.1 µM
- TGI [47]: 67.4 µM
- TGI [48]: 30.5 µM
- TGI [49]: > 100 µM
- TGI [50]: > 100 µM
- TGI [51]: 32.7 µM
- TGI [52]: 35.2 µM
- TGI [53]: 35.8 µM
- TGI [54]: > 100 µM

SMILES: CN1CCN(Cc2nc3cccc4c3c([n+]2[O-])-c2ccccc2-4)CC1
- TGI [1]: > 100 µM
- TGI [2]: > 64 µM
- TGI [3]: > 100 µM
- TGI [4]: > 53.1 µM
- TGI [5]: > 68.7 µM
- TGI [6]: > 100 µM
- TGI [7]: > 100 µM
- TGI [8]: > 61.1 µM
- TGI [55]: 84.9 µM
- TGI [9]: > 88 µM
- TGI [10]: > 100 µM
- TGI [56]: 32.1 µM
- TGI [11]: > 100 µM
- TGI [12]: > 62.6 µM
- TGI [13]: > 100 µM
- TGI [14]: > 100 µM
- TGI [57]: > 100 µM
- TGI [58]: 97.1 µM
- TGI [15]: > 59.7 µM
- TGI [16]: > 100 µM
- TGI [17]: > 100 µM
- TGI [18]: > 100 µM
- TGI [59]: 76.9 µM
- TGI [19]: > 100 µM
- TGI [20]: > 64.1 µM
- TGI [21]: > 100 µM
- TGI [22]: > 54.3 µM
- TGI [60]: 44.3 µM
- TGI [23]: > 48.5 µM
- TGI [24]: > 84.2 µM
- TGI [61]: > 100 µM
- TGI [25]: > 66.5 µM
- TGI [26]: > 100 µM
- TGI [62]: > 100 µM
- TGI [27]: > 82.8 µM
- TGI [63]: > 100 µM
- TGI [28]: > 100 µM
- TGI [64]: > 100 µM
- TGI [29]: 66.4 µM
- TGI [30]: > 68.1 µM
- TGI [31]: > 66 µM
- TGI [32]: > 100 µM
- TGI [65]: 48.3 µM
- TGI [33]: > 69.4 µM
- TGI [34]: > 100 µM
- TGI [35]: > 61.1 µM
- TGI [36]: > 50.2 µM
- TGI [37]: > 100 µM
- TGI [66]: > 84.4 µM
- TGI [38]: > 100 µM
- TGI [39]: > 56.4 µM
- TGI [40]: > 100 µM
- TGI [41]: 31.8 µM
- TGI [42]: > 100 µM
- TGI [43]: > 73.7 µM
- TGI [44]: > 74.4 µM
- TGI [45]: > 100 µM
- TGI [46]: 25.9 µM
- TGI [47]: > 100 µM
- TGI [48]: 37.3 µM
- TGI [49]: 66.6 µM
- TGI [50]: > 61.7 µM
- TGI [51]: > 51.5 µM
- TGI [52]: 49.9 µM
- TGI [67]: 96.9 µM
- TGI [54]: > 51.3 µM
- TGI [68]: 34 µM
- TGI [69]: 48.6 µM

SMILES: COC(=O)[C@]1(C)CCC[C@]2(C)C3CC4OOC3(C=C4C(C)(C)O)CCC21 (some centres undefined)
- TGI [1]: > 100 µM
- TGI [2]: > 100 µM
- TGI [3]: > 100 µM
- TGI [4]: > 100 µM
- TGI [5]: > 100 µM
- TGI [6]: > 100 µM
- TGI [7]: > 100 µM
- TGI [8]: > 100 µM
- TGI [9]: > 100 µM
- TGI [10]: > 100 µM
- TGI [11]: > 100 µM
- TGI [13]: > 100 µM
- TGI [14]: > 100 µM
- TGI [15]: > 100 µM
- TGI [16]: > 100 µM
- TGI [17]: > 100 µM
- TGI [18]: > 100 µM
- TGI [19]: > 100 µM
- TGI [20]: > 100 µM
- TGI [21]: > 100 µM
- TGI [22]: > 100 µM
- TGI [23]: 47.3 µM
- TGI [24]: > 100 µM
- TGI [25]: > 100 µM
- TGI [26]: > 100 µM
- TGI [27]: 57.8 µM
- TGI [28]: > 100 µM
- TGI [64]: > 100 µM
- TGI [30]: > 100 µM
- TGI [31]: > 100 µM
- TGI [32]: 65.6 µM
- TGI [33]: 67.3 µM
- TGI [34]: > 100 µM
- TGI [35]: 56.9 µM
- TGI [36]: > 100 µM
- TGI [37]: 32 µM
- TGI [66]: > 100 µM
- TGI [39]: > 100 µM
- TGI [40]: > 100 µM
- TGI [42]: 64.3 µM
- TGI [44]: 37.3 µM
- TGI [45]: > 100 µM
- TGI [47]: > 100 µM
- TGI [48]: > 100 µM
- TGI [50]: > 100 µM
- TGI [51]: > 100 µM
- TGI [52]: > 100 µM
- TGI [67]: > 100 µM
- TGI [53]: 46.7 µM
- TGI [54]: > 100 µM

SMILES: CC(=O)/C(=C\c1ccccc1)C(=O)Nc1ccccc1
- TGI [1]: > 100 µM
- TGI [2]: > 100 µM
- TGI [3]: > 100 µM
- TGI [5]: > 100 µM
- TGI [6]: > 100 µM
- TGI [8]: > 100 µM
- TGI [9]: > 100 µM
- TGI [10]: > 100 µM
- TGI [11]: > 100 µM
- TGI [13]: > 100 µM
- TGI [14]: > 100 µM
- TGI [16]: > 100 µM
- TGI [17]: > 100 µM
- TGI [18]: > 100 µM
- TGI [20]: > 100 µM
- TGI [21]: > 100 µM
- TGI [22]: > 100 µM
- TGI [23]: > 100 µM
- TGI [24]: > 100 µM
- TGI [25]: > 100 µM
- TGI [26]: > 100 µM
- TGI [62]: > 100 µM
- TGI [27]: > 100 µM
- TGI [28]: > 100 µM
- TGI [64]: > 100 µM
- TGI [29]: > 100 µM
- TGI [30]: > 100 µM
- TGI [31]: > 100 µM
- TGI [32]: > 100 µM
- TGI [33]: > 100 µM
- TGI [34]: > 100 µM
- TGI [35]: > 100 µM
- TGI [36]: > 100 µM
- TGI [37]: > 100 µM
- TGI [66]: > 100 µM
- TGI [38]: > 100 µM
- TGI [39]: > 100 µM
- TGI [40]: > 100 µM
- TGI [41]: > 100 µM
- TGI [42]: > 100 µM
- TGI [43]: > 100 µM
- TGI [44]: > 100 µM
- TGI [45]: > 100 µM
- TGI [46]: > 100 µM
- TGI [47]: > 100 µM
- TGI [48]: > 100 µM
- TGI [50]: > 100 µM
- TGI [51]: > 100 µM
- TGI [52]: > 100 µM
- TGI [67]: > 100 µM
- TGI [53]: > 100 µM
- TGI [54]: > 100 µM
